Results taken from the RepoRT retention time repository (doi:10.1016/j.aca.2011.12.065).
Structures can show the parent of a compound that is named as a salt.

Experiments:
[1] = RP, Waters ACQUITY UPLC BEH C18, 100 × 2.1 mm, 1.7 µm; A: water + 0.1% formic acid, pH 3; B: 80% acetonitrile + 20% acetone + 0.1% formic acid, pH 3; gradient (min/%B) 0/0 6/100; conditions: stereoisomer not certain
[2] = RP, Waters ACQUITY UPLC HSS T3, 100 × 2.1 mm, 1.8 µm; A: water + 0.1% formic acid, pH 3; B: 30% methanol + 70% acetonitrile + 0.1% formic acid, pH 3; gradient (min/%B) 0.0/5 1.0/8 2.0/15 3.0/40 4.0/70 4.5/100 5.0/100 6.4/100 6.6/5.0 6.8/5.0 7.0/5.0; conditions: stereoisomer not certain

LC retention time [1] [min] | LC retention time [2] [min] | SMILES
2.85 | 4.26 | CC(CCC(=O)NCCS(=O)(=O)O)C1CCC2C3C(O)CC4CC(O)CCC4(C)C3CC(O)C12C (centres undefined) [Taurocholic acid]
1.78 | 3.17 | COc1cc(C(=O)O)ccc1O [Vanillic acid]
0.676 | 0.527 | NC(CCCCNCC(=O)O)C(=O)O (centres undefined) [cml]
0.749 | 0.533 | Nc1ccn(C2OC(CO)C(O)C2O)c(=O)n1 (centres undefined) [cytidine]
0.577 | 0.475 | NC(CCC(=O)O)C(=O)O (centres undefined) [glutamic acid]
3.46 | 4.23 | CC(CCC(=O)NCC(=O)O)C1CCC2C3C(O)CC4CC(O)CCC4(C)C3CCC12C (centres undefined) [glycochenodeoxycholic acid]
3.56 | 4.61 | CC(CCC(=O)NCC(=O)O)C1CCC2C3CCC4CC(O)CCC4(C)C3CCC12C (centres undefined) [glycolithocholic acid]
1.7 | 2.92 | OCC1OC(Oc2c[nH]c3ccccc23)C(O)C(O)C1O (stereo not drawn) [indoxyl beta-d-glucoside]
2.76 | 3.88 | O=c1c(O)c(-c2ccc(O)cc2)oc2cc(O)cc(O)c12 [kaempferol]
3.38 | 4.2 | CCCCCCCCCCCC(=O)OC(CC(=O)[O-])C[N+](C)(C)C (stereo not drawn) [lauroyl l-carnitine]
1.39 | 1.46 | CC(=O)CCC(=O)O [levulinic acid]
4.4 | 4.7 | CCCCCCCCCCCCCCCC(=O)OCC(O)COP(=O)([O-])OCC[N+](C)(C)C (centres undefined) [lysoPC(16:0/0:0)]
4.27 | 4.6 | CCCCCCCCCCCC(=O)N(C)CC(=O)O [n-lauroylsarcosine]
0.969 | 0.722 | NC(=O)c1cccnc1 [nicotinamide]
2.08 | 3.49 | O=C(O)C(O)Cc1ccccc1 (centres undefined) [phenyllactic acid]
1.68 | 2.86 | O=C(O)c1ccc2ccccc2n1 [quinaldic acid]
0.574 | 0.468 | CNCC(=O)O [sarcosine]
3.33 | 4.46 | CC(CCC(=O)NCCS(=O)(=O)O)C1CCC2C3CCC4CC(O)CCC4(C)C3CC(O)C12C (centres undefined) [taurodeoxycholic acid]
0.577 | 0.479 | O=C(O)C1CC(O)CN1 (stereo not drawn) [trans-4-hydroxy-l-proline]

More lines, now with the values behind:

SMILES | LC retention time [1] [min] | LC retention time [2] [min]
CC(O)C(N)C(=O)O (centres undefined) [Threonine] | 0.574 | 0.475
O=c1cc[nH]c(=O)[nH]1 [Uracil] | 0.752 | 0.628
O=c1[nH]c(=O)c2[nH]c(=O)[nH]c2[nH]1 [Uric acid] | 0.752 | 0.618
CNC(C)(C)C(=O)O [alfa-(methylamino)isobutyric acid] | 0.712 | 0.531
OCC1OC(OC2C(CO)OC(O)C(O)C2O)C(O)C(O)C1O (centres undefined) [alfa-lactose monohydrate] | 0.6 | 0.476
CC(C)c1cc2c(c(O)c1O)C13CCCC(C)(C)C1CC2OC3=O (centres undefined) [carnosol] | 4 | 4.51
COC1=C(OC)C(=O)C(CC=C(C)C)=C(C)C1=O [coenzyme q1] | 3.92 | 4.47
CC(C)(CO)C(O)C(=O)NCCC(=O)NCCSSCCNC(=O)CCNC(=O)C(O)C(C)(C)CO (stereo not drawn) [d-pantethine] | 1.87 | 3.44
CC(CCC(=O)O)C1CCC2C3C(=O)CC4CC(=O)CCC4(C)C3CC(=O)C12C (centres undefined) [dehydrocholic acid] | 2.98 | 4.05
O=C1CCCCN1 [delta-valerolactam] | 1.39 | 1.69
CC(CCC(=O)NCC(=O)O)C1CCC2C3CCC4CC(O)CCC4(C)C3CC(O)C12C (centres undefined) [glycodeoxycholic acid] | 3.46 | 4.44
Nc1nc2c(ncn2C2OC(CO)C(O)C2O)c(=O)[nH]1 (centres undefined) [guanosine] | 1.26 | 1.18
CC12CCC(=O)C=C1CCC1C2C(O)CC2(C)C1CCC2(O)C(=O)CO (centres undefined) [hydrocortisone, cortisol] | 2.63 | 3.87
NCCS(=O)O [hypotaurine] | 0.576 | 0.468
O=c1[nH]cnc2nc[nH]c12 [hypoxanthine] | 0.882 | 0.706
O=C(O)C1OC(Oc2c[nH]c3ccccc23)C(O)C(O)C1O (stereo not drawn) [indoxyl beta-d-glucuronide cyclohexylammonium salt] | 1.7 | 2.95
NC(CS)C(=O)O (stereo not drawn) [l-cysteine] | 0.603 | 0.491

SMILES | LC retention time [1] [min] | LC retention time [2] [min]
NC(CSSCC(N)C(=O)O)C(=O)O (stereo not drawn) [l-cystine] | 0.546 | 0.447
NCCCCC(N)C(=O)O (stereo not drawn) [l-lysine] | 0.51 | 0.404
NCCCC(N)C(=O)O (stereo not drawn) [l-ornithine monohydrochloride] | 0.517 | 0.415
CCCCCCCCC=CCCCCCCCC(=O)OCC(O)COP(=O)([O-])OCC[N+](C)(C)C (centres undefined) [lysoPC(18:1(9Z)/0:0)] | 4.5 | 4.72
OC1C(O)C(O)C(O)C(O)C1O (centres undefined) [myo-inositol] | 0.571 | 0.465
CC(=O)NC(CC(=O)O)C(=O)NC(CCC(=O)O)C(=O)O (centres undefined) [n-acetyl-asp-glu] | 1.28 | 0.863
CC(=O)NC(Cc1ccc(O)cc1)C(=O)O (stereo not drawn) [n-acetyl-l-tyrosine] | 1.53 | 2.68
O=C([O-])c1cc(=O)[nH]c(=O)[nH]1 [orotic acid] | 0.719 | 0.588
Nc1ccc(C(=O)NCC(=O)O)cc1 [p-aminohippuric acid] | 1.29 | 1.2
Nc1ccc(C(=O)O)cc1 [paba] | 1.5 | 2.09
O=C1CCC(C(=O)N2CCCC2C(=O)O)N1 (centres undefined) [pglu-pro] | 1.43 | 2.02
NC(CCCCn1c(C=O)ccc1CO)C(=O)O (centres undefined) [pyrraline] | 1.43 | 2.31
OCC1OC(OC2(CO)OC(CO)C(O)C2O)C(O)C(O)C1O (centres undefined) [sucrose] | 0.661 | 0.504
Cn1cnc2c1c(=O)[nH]c(=O)n2C [theobromine] | 1.37 | 2.14
NCCc1c[nH]c2ccccc12 [tryptamine hydrochloride] | 1.53 | 2.65
COc1cc(C=O)ccc1O [vanillin] | 2.03 | 3.45
